Ki data for 19 compounds are collected here from US20240150293A1, “SPIROCYCLOHEXANE DERIVATIVES, PHARMACEUTICAL COMPOSITIONS CONTAINING THEM AND THEIR USES AS ANTI-APOPTOTIC INHIBITORS” (LES LABORATOIRES SERVIER, priority 2021, published 2024).

The test concerns the target Mcl-1 protein (UniProtKB Q07820) (Homo sapiens (Human), UniProt Q07820). The experiment in a line: Inhibition of Mcl-1 by the fluorescence polarisation assay (Example A, Method A). To be noted: fluorescence polarization assay. It is filed as binding. A digest of the protocol:
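Protein (5 nM) and fluorescein-tagged peptide tracer (1 nM) incubated with 11-point compound series for 2 h at room temperature in HEPES/NaCl/Tween 20 buffer, pH 7.4, 5% DMSO. Displacement read as decrease in polarisation; IC50 fitted by 4-parameter logistic, converted to Ki (cKi or eKi).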
(Fluorescence polarisation rises when a labelled molecule tumbles more slowly, as on binding a larger partner.)

Sequence of Mcl-1 protein (Q07820 whole entry): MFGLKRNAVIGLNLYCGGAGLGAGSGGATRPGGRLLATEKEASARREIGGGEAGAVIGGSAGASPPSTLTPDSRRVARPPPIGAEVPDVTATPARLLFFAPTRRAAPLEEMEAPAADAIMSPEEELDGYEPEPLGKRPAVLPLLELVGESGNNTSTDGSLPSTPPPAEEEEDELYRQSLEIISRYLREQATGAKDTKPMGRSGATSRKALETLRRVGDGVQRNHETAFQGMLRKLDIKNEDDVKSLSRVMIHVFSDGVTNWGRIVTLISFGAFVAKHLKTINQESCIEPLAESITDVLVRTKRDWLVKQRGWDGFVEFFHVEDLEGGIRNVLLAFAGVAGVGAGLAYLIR

Usually Ki stands for a measure of affinity in units of concentration, obtained from inhibition or displacement. In the case of `O=C(O)[C@]1(Nc2cccc(Cl)c2)CC[C@@]2(CC1)c1ccccc1CC2c1ccc(Cl)cc1` (single isomer, unassigned) [Example 319, (1r,4r)-4-(3-chloroanilino)-2′-(4-chlorophenyl)-2′,3′-dihydrospiro[cyclohexane-1,1′-indene]-4-carboxylic acid], the Ki was found to be 0.906 µM. To `O=C(O)[C@]1(Nc2cccc(Cl)c2)CC[C@@]2(CC1)c1ccccc1CC2c1ccc(Cl)cc1` (single isomer, unassigned) [Example 320, (1r,4r)-4-(3-chloroanilino)-2′-(4-chlorophenyl)-2′,3′-dihydrospiro[cyclohexane-1,1′-indene]-4-carboxylic acid] belongs 6.86 µM; to `COc1cccc(C2Cc3ccccc3[C@]23CC[C@@](Nc2cccc(Cl)c2)(C(=O)O)CC3)c1C` (single isomer, unassigned) [Example 321, (1r,4r)-4-(3-chloroanilino)-2′-(3-methoxy-2-methylphenyl)-2′,3′-dihydrospiro[cyclohexane-1,1′-indene]-4-carboxylic acid], 2.94 µM; to `COc1cccc(C2Cc3ccccc3[C@]23CC[C@@](Nc2cccc(Cl)c2)(C(=O)O)CC3)c1C` (single isomer, unassigned) [Example 322, (1r,4r)-4-(3-chloroanilino)-2′-(3-methoxy-2-methylphenyl)-2′,3′-dihydrospiro[cyclohexane-1,1′-indene]-4-carboxylic acid], 17.7 µM. In the case of `O=C(O)[C@]1(Nc2cccc(Cl)c2)CC[C@@]2(CC1)c1ccccc1CC2c1ccccc1` (single isomer, unassigned) [Example 327, (1r,4r)-4-(3-chloroanilino)-2′-phenyl-2′,3′-dihydrospiro[cyclohexane-1,1′-indene]-4-carboxylic acid] it was 7.14 µM; in that of `O=C(O)[C@]1(Nc2cccc(Cl)c2)CC[C@@]2(CC1)c1ccccc1CC2c1ccccc1` (single isomer, unassigned) [Example 328, (1r,4r)-4-(3-chloroanilino)-2′-phenyl-2′,3′-dihydrospiro[cyclohexane-1,1′-indene]-4-carboxylic acid], 0.677 µM; in that of `O=C(O)[C@]1(Nc2cccc(Cl)c2)CC[C@@]2(CC1)c1ccccc1CC2c1cccc(Cl)c1` (single isomer, unassigned) [Example 343, (1r,4r)-4-(3-chloroanilino)-2′-(3-chlorophenyl)-2′,3′-dihydrospiro[cyclohexane-1,1′-indene]-4-carboxylic acid], 0.978 µM. In the case of `O=C(O)[C@]1(Nc2cccc(Cl)c2)CC[C@@]2(CC1)c1ccccc1CC2c1cccc(Cl)c1` (single isomer, unassigned) [Example 344, (1r,4r)-4-(3-chloroanilino)-2′-(3-chlorophenyl)-2′,3′-dihydrospiro[cyclohexane-1,1′-indene]-4-carboxylic acid] it was 11.2 µM. As for `COc1cc(Cl)cc(C2Cc3ccccc3[C@]23CC[C@@](Nc2cccc(Cl)c2)(C(=O)O)CC3)c1` (single isomer, unassigned) [Example 347, (1r,4r)-4-(3-chloroanilino)-2′-(3-chloro-5-methoxyphenyl)-2′,3′-dihydrospiro[cyclohexane-1,1′-indene]-4-carboxylic acid], the inhibition constant (Ki) was determined as 1.13 µM.

With `COc1cc(Cl)cc(C2Cc3ccccc3[C@]23CC[C@@](Nc2cccc(Cl)c2)(C(=O)O)CC3)c1` (single isomer, unassigned) [Example 348, (1r,4r)-4-(3-chloroanilino)-2′-(3-chloro-5-methoxyphenyl)-2′,3′-dihydrospiro[cyclohexane-1,1′-indene]-4-carboxylic acid], the Ki was 10.6 µM.

As for `O=C(O)[C@]1(Nc2cccc(Cl)c2)CC[C@@]2(CC1)c1ccccc1CC2c1ccc(OCc2ccccc2)cc1` (single isomer, unassigned) [Example 352, (1r,4r)-2′-[4-(benzyloxy)phenyl]-4-(3-chloroanilino)-2′,3′-dihydrospiro[cyclohexane-1,1′-indene]-4-carboxylic acid], the Ki stood at 0.802 µM. In the case of `O=C(O)[C@]1(Nc2cccc(Cl)c2)CC[C@@]2(CC1)c1ccccc1CC2c1ccc(OCc2ccccc2)cc1` (single isomer, unassigned) [Example 353, (1r,4r)-2′-[4-(benzyloxy)phenyl]-4-(3-chloroanilino)-2′,3′-dihydrospiro[cyclohexane-1,1′-indene]-4-carboxylic acid] it was 8.72 µM; in that of `O=C(O)[C@]1(Nc2cccc(Cl)c2)CC[C@@]2(CC1)c1ccccc1CC2c1cccc(OCC2CC2)c1` (single isomer, unassigned) [Example 354, (1r,4r)-4-(3-chloroanilino)-2′-[3-(cyclopropylmethoxy)phenyl]-2′,3′-dihydrospiro[cyclohexane-1,1′-indene]-4-carboxylic acid], 0.402 µM.

Turning to `O=C(O)[C@]1(Nc2cccc(Cl)c2)CC[C@@]2(CC1)c1ccccc1CC2c1cccc(OCC2CC2)c1` (single isomer, unassigned) [Example 355, (1r,4r)-4-(3-chloroanilino)-2′-[3-(cyclopropylmethoxy)phenyl]-2′,3′-dihydrospiro[cyclohexane-1,1′-indene]-4-carboxylic acid], the Ki was determined as 9.96 µM. As for `O=C(O)[C@]1(Nc2cccc(Cl)c2)CC[C@@]2(CC1)c1ccccc1CC2c1ccc(Oc2ccncc2)cc1` (single isomer, unassigned) [Example 364, (1r,4r)-4-(3-chloroanilino)-2′-{4-[(pyridin-4-yl)oxy]phenyl}-2′,3′-dihydrospiro[cyclohexane-1,1′-indene]-4-carboxylic acid], the Ki is 0.459 µM. In the case of `O=C(O)[C@]1(Nc2cccc(Cl)c2)CC[C@@]2(CC1)c1ccccc1CC2c1ccc(Oc2ccncc2)cc1` (single isomer, unassigned) [Example 365, (1r,4r)-4-(3-chloroanilino)-2′-{4-[(pyridin-4-yl)oxy]phenyl}-2′,3′-dihydrospiro[cyclohexane-1,1′-indene]-4-carboxylic acid] it was 3.09 µM; in that of `O=C(O)[C@]1(Nc2cccc(Cl)c2)CC[C@@]2(CC1)c1ccccc1CC2c1ccc(OCc2ccncc2)cc1` (single isomer, unassigned) [Example 369, (1r,4r)-4-(3-chloroanilino)-2′-{4-[(pyridin-4-yl)methoxy]phenyl}-2′,3′-dihydrospiro[cyclohexane-1,1′-indene]-4-carboxylic acid], 1.91 µM; in that of `O=C(O)[C@]1(Nc2cccc(Cl)c2)CC[C@@]2(CC1)c1ccccc1CC2c1cccc(OCc2cccnc2)c1` (single isomer, unassigned) [Example 372, (1r,4r)-4-(3-chloroanilino)-2′-{3-[(pyridin-3-yl)methoxy]phenyl}-2′,3′-dihydrospiro[cyclohexane-1,1′-indene]-4-carboxylic acid], 0.201 µM.

Consider `O=C(O)[C@]1(Nc2cccc(Cl)c2)CC[C@@]2(CC1)c1ccccc1CC2c1cccc(OCc2ccncc2)c1` (single isomer, unassigned) [Example 373, (1r,4r)-4-(3-chloroanilino)-2′-{3-[(pyridin-4-yl)methoxy]phenyl}-2′,3′-dihydrospiro[cyclohexane-1,1′-indene]-4-carboxylic acid], for which the Ki turned out to be 0.221 µM.
